Where “and” joins values, the source holds several entries; their conditions need not be identical. Equal values may be shown once. Read-outs that look alike come from different tables or passages of the source.
Tests used:
rCYP2A6 = biological target: T1, rCYP2A6 (Homo sapiens, UniProt P11509); test: Reaction phenotyping of BDQ in recombinant P450 enzymes (rCYPs method); assay type: in vitro ADME; details: BDQ 1 μM, M2 formation, CYP2A6
T1 construct: purchased BD Gentest (Woburn, MA, United States)
T1 sequence (P11509 1-494): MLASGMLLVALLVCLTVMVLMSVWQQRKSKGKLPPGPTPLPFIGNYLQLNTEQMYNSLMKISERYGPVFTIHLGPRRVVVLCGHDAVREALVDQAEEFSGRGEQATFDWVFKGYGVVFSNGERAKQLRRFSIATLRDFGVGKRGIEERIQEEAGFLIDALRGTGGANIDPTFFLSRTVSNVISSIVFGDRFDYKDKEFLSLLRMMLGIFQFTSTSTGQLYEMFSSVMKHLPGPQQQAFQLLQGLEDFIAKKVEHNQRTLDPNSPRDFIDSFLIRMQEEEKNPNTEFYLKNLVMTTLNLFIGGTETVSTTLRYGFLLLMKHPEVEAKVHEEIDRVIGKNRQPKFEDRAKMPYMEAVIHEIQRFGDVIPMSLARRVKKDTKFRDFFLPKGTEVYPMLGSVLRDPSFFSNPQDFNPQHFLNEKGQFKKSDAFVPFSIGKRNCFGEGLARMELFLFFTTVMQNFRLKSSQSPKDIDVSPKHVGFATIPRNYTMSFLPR

rCYP2C8 = biological target: T2, rCYP2C8 (Homo sapiens, UniProt P10632); test: as above; assay type: in vitro ADME; details: BDQ 1 μM, CYP2C8
T2 construct: purchased BD Gentest (Woburn, MA, United States)
T2 sequence (P10632 1-490): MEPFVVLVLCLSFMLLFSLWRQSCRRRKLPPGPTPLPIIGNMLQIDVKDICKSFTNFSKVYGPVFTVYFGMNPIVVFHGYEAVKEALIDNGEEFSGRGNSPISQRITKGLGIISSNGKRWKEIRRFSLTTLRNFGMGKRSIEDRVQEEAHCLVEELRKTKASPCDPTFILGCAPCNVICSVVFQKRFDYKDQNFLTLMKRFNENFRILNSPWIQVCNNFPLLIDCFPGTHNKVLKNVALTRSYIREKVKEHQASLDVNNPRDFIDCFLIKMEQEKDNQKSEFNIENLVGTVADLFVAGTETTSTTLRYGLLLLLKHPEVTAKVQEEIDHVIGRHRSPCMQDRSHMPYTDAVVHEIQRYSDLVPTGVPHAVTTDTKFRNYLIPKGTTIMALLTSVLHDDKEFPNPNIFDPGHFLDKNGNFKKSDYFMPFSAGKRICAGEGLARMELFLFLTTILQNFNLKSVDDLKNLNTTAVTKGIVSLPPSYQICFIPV

rCYP2C19 = biological target: T3, rCYP2C19 (Homo sapiens, UniProt P33261); test: as above; assay type: in vitro ADME; details: BDQ 1 μM, CYP2C19
T3 construct: purchased BD Gentest (Woburn, MA, United States)

rCYP3A4 = biological target: T4, rCYP3A4 (Homo sapiens, UniProt P08684); test: as above; assay type: in vitro ADME; details: BDQ 1 μM, CYP3A4
T4 construct: purchased BD Gentest (Woburn, MA, United States)

rCYP3A5 = biological target: T5, rCYP3A5 (Homo sapiens, UniProt P20815); test: as above; assay type: in vitro ADME; details: BDQ 1 μM, CYP3A5
T5 construct: purchased BD Gentest (Woburn, MA, United States)

[1] = Plasma concentration 3 h post dose in murine model of tuberculosis; assay type: in vivo, BALB/c mice infected with M. tuberculosis H37Rv; details: TB model; for concentration at 3 h: female, BALB/c, mouse, plasma, read-out: Mean plasma concentration at three hours after oral administration; for plasma concentration after coadministration as percent of BDQ alone: 3 h post dose, p < 0.05
[2] = male, BALB/c, mouse, in vivo
[3] = mouse, in vivo
in vivo = details: male, BALB/c, mouse, tissue-to-plasma ratio (Kp)
phospholipidosis = details: cited from earlier work
[4] = Lung and spleen tissue exposure in BALB/c mice
[5] = Stability of BDQ, M2 and TBI-166 in mice plasma (LC-MS/MS validation)
[6] = Steady-state plasma pharmacokinetics of BDQ, M2 and TBI-166 in BALB/c mice; details: for AUC(0-t): Plasma; for t 1/2: after last dose
CYP3A4/5 = details: cited from earlier work
[7] = TBI-166 group (20 mg/kg), W4, LLOQ 5, 5, 15 ng/mL for BDQ, TBI-166, M2
[8] = TBI-166 group (20 mg/kg), W8, LLOQ 5, 5, 15 ng/mL for BDQ, TBI-166, M2

T4 sequence (P08684 whole entry): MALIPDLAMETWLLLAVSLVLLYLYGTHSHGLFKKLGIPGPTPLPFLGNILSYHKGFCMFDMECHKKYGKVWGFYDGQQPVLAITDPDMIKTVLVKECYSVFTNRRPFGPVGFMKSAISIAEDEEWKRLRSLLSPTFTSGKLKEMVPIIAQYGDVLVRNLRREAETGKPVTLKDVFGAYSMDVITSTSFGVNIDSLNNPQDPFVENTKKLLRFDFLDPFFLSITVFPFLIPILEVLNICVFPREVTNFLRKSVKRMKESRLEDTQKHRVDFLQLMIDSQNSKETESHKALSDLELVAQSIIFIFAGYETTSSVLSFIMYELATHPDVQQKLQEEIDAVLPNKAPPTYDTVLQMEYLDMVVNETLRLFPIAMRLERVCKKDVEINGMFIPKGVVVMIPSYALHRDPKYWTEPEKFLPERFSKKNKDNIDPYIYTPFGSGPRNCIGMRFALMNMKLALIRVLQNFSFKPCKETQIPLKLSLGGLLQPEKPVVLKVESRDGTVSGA
T5 sequence (P20815 whole entry): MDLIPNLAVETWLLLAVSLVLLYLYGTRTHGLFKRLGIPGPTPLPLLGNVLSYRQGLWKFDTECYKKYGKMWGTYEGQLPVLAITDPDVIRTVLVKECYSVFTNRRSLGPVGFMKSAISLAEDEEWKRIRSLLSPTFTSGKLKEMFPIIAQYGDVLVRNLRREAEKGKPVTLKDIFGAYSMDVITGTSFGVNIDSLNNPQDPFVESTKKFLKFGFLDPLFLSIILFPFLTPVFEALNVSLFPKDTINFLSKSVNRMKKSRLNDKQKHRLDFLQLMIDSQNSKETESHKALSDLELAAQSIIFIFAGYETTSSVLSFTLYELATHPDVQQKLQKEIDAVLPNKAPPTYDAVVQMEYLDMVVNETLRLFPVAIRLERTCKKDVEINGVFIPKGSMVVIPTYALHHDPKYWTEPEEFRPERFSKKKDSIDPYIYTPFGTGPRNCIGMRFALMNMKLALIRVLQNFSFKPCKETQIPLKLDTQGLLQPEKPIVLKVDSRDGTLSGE
T3 sequence (P33261 whole entry): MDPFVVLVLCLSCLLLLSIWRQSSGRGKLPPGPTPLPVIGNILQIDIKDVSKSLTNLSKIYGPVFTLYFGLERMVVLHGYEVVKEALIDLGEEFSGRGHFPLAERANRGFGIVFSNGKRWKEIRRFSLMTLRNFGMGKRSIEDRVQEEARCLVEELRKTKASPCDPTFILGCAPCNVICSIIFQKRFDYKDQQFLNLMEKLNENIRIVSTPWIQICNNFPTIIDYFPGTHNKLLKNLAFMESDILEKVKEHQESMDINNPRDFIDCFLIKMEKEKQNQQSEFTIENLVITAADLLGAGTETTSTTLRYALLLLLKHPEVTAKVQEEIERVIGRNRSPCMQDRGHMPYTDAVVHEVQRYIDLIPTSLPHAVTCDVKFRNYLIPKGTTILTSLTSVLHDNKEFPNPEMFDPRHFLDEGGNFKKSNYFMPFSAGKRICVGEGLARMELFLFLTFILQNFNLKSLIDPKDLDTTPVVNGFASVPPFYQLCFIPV

## COc1nc2ccc(Br)cc2cc1[C@@H](c1ccccc1)[C@@](O)(CCN(C)C)c1cccc2ccccc12 [BDQ, Bedaquiline]
rCYP2A6
  f m (fraction of drug metabolism by individual CYP enzyme): 3.1%
rCYP2C8
  f m (fraction of drug metabolism by individual CYP enzyme): 8.8%
rCYP2C19
  f m (fraction of drug metabolism by individual CYP enzyme): 5.7%
rCYP3A4
  f m (fraction of drug metabolism by individual CYP enzyme): 73.1%
rCYP3A5
  f m (fraction of drug metabolism by individual CYP enzyme): 3.5%
[1]; [7]
  Mean plasma concentration at three hours after oral administration: <LLOQ
[1]; [8]
  Mean plasma concentration at three hours after oral administration: <LLOQ
[1]; oral, 25 mg/kg, BDQ group (25 mg/kg), W4, LLOQ 5, 5, 15 ng/mL for BDQ, TBI-166, M2
  concentration at 3 h: 657 ± 142 ng/mL
[1]; oral, 25 mg/kg, BDQ group (25 mg/kg), W8, LLOQ 5, 5, 15 ng/mL for BDQ, TBI-166, M2
  concentration at 3 h: 920 ± 126 ng/mL
[1]; po, BDQ + TBI-166 group, W4
  concentration at 3 h: 647 ± 199 ng/mL
[1]; po, BDQ + TBI-166 group, W8
  concentration at 3 h: 889 ± 171 ng/mL
[2]
  AUC(0-last) as percent of single-drug group: 100%
[2]; po, 25 mg/kg
  MRT(0-t): 52.80 h
[3]
  exposure (AUC0-t) with vs without coadministration: similar
In vivo
  Kp: 19.7

## CNCC[C@@](O)(c1cccc2ccccc12)[C@H](c1ccccc1)c1cc2cc(Br)ccc2nc1OC [M2, N-desmethyl-bedaquiline]
[1]; 4 weeks
  plasma concentration after coadministration as percent of BDQ alone: 87%
[1]; 8 weeks
  plasma concentration after coadministration as percent of BDQ alone: 79%
[1]; BDQ + TBI-166 group, W4
  Mean plasma concentration at three hours after oral administration: 970 ng/mL and 969.68 ± 206.81 ng/mL
[1]; BDQ + TBI-166 group, W8
  Mean plasma concentration at three hours after oral administration: 948 ng/mL and 948.31 ± 60.21 ng/mL
[1]; [7]
  Mean plasma concentration at three hours after oral administration: <LLOQ
[1]; [8]
  Mean plasma concentration at three hours after oral administration: <LLOQ
phospholipidosis
  higher cardiotoxicity by inducing phospholipidosis compared with BDQ: 50 times
[4]; Lung, BDQ + TBI-166 group
  AUC(0-t): 4940.02 ± 756.58 µg·h/g
  tissue-to-plasma ratio (Kp): 64.79
[4]; Lung, BDQ group
  AUC(0-t): 4827.39 ± 818.42 µg·h/g
  tissue-to-plasma ratio (Kp): 41.72
[4]; Spleen, BDQ + TBI-166 group
  AUC(0-t): 6358.44 ± 1054.47 µg·h/g
  tissue-to-plasma ratio (Kp): 83.39
[4]; Spleen, BDQ group
  AUC(0-t): 4703.39 ± 1052.83 µg·h/g
  tissue-to-plasma ratio (Kp): 40.65
[4]; lungs
  exposure (AUC0-t) with vs without coadministration: similar
[4]; spleens
  increase of exposure (AUC0-t) after coadministration of BDQ with TBI-166: 1.5 fold
[5]; 4℃ for 24 h, 45 ng/mL
  Stability in mice plasma, RE: 5.42%
[5]; 4℃ for 24 h, 225 ng/mL
  Stability in mice plasma, RE: 13.08%
[5]; 4℃ for 24 h, 2250 ng/mL
  Stability in mice plasma, RE: 9.97%
[5]; -40℃ for 7 d, 45 ng/mL
  Stability in mice plasma, RE: 15.73%
[5]; -40℃ for 7 d, 225 ng/mL
  Stability in mice plasma, RE: 2.77%
[5]; -40℃ for 7 d, 2250 ng/mL
  Stability in mice plasma, RE: 9.33%
[5]; Freeze-thaw three cycles, 45 ng/mL
  Stability in mice plasma, RE: 12.58%
[5]; Freeze-thaw three cycles, 225 ng/mL
  Stability in mice plasma, RE: 17.75%
[5]; Freeze-thaw three cycles, 2250 ng/mL
  Stability in mice plasma, RE: 6.90%
[5]; In auto-sample for 24 h, 45 ng/mL
  Stability in mice plasma, RE: 14.04%
[5]; In auto-sample for 24 h, 225 ng/mL
  Stability in mice plasma, RE: 17.58%
[5]; In auto-sample for 24 h, 2250 ng/mL
  Stability in mice plasma, RE: 4.83%
[5]; Room temperature for 24 h, 45 ng/mL
  Stability in mice plasma, RE: 9.38%
[5]; Room temperature for 24 h, 225 ng/mL
  Stability in mice plasma, RE: 17.30%
[5]; Room temperature for 24 h, 2250 ng/mL
  Stability in mice plasma, RE: 4.03%
[6]; 1 h post dose
  mean plasma concentration in BDQ + TBI-166 group as percent of BDQ group: 85%
[6]; 1 h post dose (so in the source), BDQ group
  mean plasma concentration: 1,438 ng/mL
[6]; 1 h post dose, BDQ + TBI-166 group
  mean plasma concentration: 1,235.36 ng/mL
[6]; 3 h post dose
  mean plasma concentration in BDQ + TBI-166 group as percent of BDQ group: 75%
[6]; 3 h post dose, BDQ + TBI-166 group
  mean plasma concentration: 1,084.84 ng/mL
[6]; 3 h post dose, BDQ group
  mean plasma concentration: 1,438.31 ng/mL
[6]; BDQ + TBI-166 group vs BDQ group
  area under the curve ratio (AUCR): 0.66
[6]; BDQ + TBI-166 group (Table S4)
  AUC(0-t): 76250 ± 8100 ng·h/mL
[6]; BDQ group (Table S4)
  AUC(0-t): 115730 ± 25440 ng·h/mL
[6]; plasma, BDQ + TBI-166 group
  AUC(0-last): 76,310 ± 5,901 h·ng/mL
  AUC(0-last) as percent of single-drug group: 66%
  AUC(0-∞): 89,814 h·ng/mL
  C max: 1,235.36 ± 22.74 ng/mL
  MRT(0-t): 51.71 h
  T max: 1 h
[6]; plasma, BDQ + TBI-166 group (BDQ 25 mg/kg + TBI-166 20 mg/kg, gavage QD 21 days)
  t 1/2: 57.47 h
[6]; plasma, BDQ group (BDQ 25 mg/kg alone, gavage QD 21 days)
  t 1/2: 64.27 h
[6]; plasma, BDQ group (BDQ alone)
  AUC(0-last): 115,704 ± 19,589 h·ng/mL
  AUC(0-∞): 134,430 h·ng/mL
  C max: 1,438.31 ± 127.21 ng/mL
  MRT(0-t): 56.46 h
  T max: 3 h
[6]; plasma, BDQ group (reference)
  AUC(0-last) as percent of single-drug group: 100%
[6]; plasma, vs BDQ group
  decrease of AUC0-last after coadministration of BDQ with TBI-166: 34%

## CC(C)/N=c1\cc2n(-c3ccc(Cl)cc3)c3ccccc3nc-2cc1Nc1ccc(Cl)cc1 [clofazimine]
CYP3A4/5
  CYP3A4/5 inhibitor strength: moderate-to-strong

— publication PMC10582325 (Frontiers in Pharmacology, 2023)
